According to US20080262080A1, “Allergy Suppressive Agent” (KYUSHU UNIVERSITY, NATIONAL UNIVERSITY CORPORATION, priority 2004, published 2008):

Assays:
[1] = system: high-affinity IgE receptor (FcεRI); test: FcεRI expression amount on the cell surface of KU812 cells by flow cytometry; format: cell-based, human; conditions: for FcεRI expression suppressive rate (%): 24 hours
Protocol: By using antihuman FcRI antibody (CRA1), the FcεRI expression amount on the surface of human basophil-like cell line KU812 cells was analyzed by flow cytometry. Cells having been incubated by adding DMSO alone were compared with cells having been incubated by adding chrysin. The ratio of overexpression of FcεRI is indicated in percentage. As a basal medium for incubating cells, use was made of RPMI 1640 (Nissui, Japan), to which 100 U/mL of penicillin (Meiji Pharmaceutical Company, Tokyo, Japan), […] of streptomycin (Meiji Pharmaceutical Company, Tokyo, Japan), 12.5 mM of MaHCO3 (Wako Pure Chemical Industries, Osaka, Japan) and 10 mM of HEPES Wako Pure Chemical Industries) had been added. Fetal bovine serum (FBS) purchased form Bio Source International was added to the basal medium to give a concentration of 5 to 10%. Human basophil-like cell line KU812 employed in this experiment was assigned by Japan Collection of Research Bioresources (JCRB) and subcultured and maintained in RPMI 1640 medium comprising 5 to 10% of FBS at 37° C. in 5% CO2 gas under humidification. KU812 cells were incubated in RPMI 1640 medium, to which chrysin dissolved in DMSO had been added, for 0 to 24 hours. A system wherein the cells were incubated in the medium comprising DMSO alone was used as a control. After incubating, the cells were collected and incubated in 5% FBS-PBS, to which 10 μg/mL of antihuman FcεRI α chain mouse monoclonal antibody CRA-1 (Kyokuto Pharmaceutical) had been added, at 4° C. for 40 to 60 min. As a negative control, 10 μg/mL of mouse control IgG2b antibody (DAKO) was used. Then, the cells were washed with ice-cooled PBS once and incubated in 5% FBS-PBS, to which 10 μg/mL of antimouse IgG2b FITC-labeled antibody (Protos Immunoresearch) had been added, at 4° C. for 40 to 60 min. After incubating, the cells were washed with PBS and then resuspended in PBS. The cell suspension thus obtained was analyzed by flow cytometry. In the flow cytometry analysis, FACS Calibur (Becton Sickinson, Sunnyvale, Calif.) was employed. The secondary antibody reaction and the subsequent procedures were conducted in the dark and the cells were preserved on ice while conducting the analysis. KU812 cells (5×10^5 cells/mL) was incubated in 5% bovine fetal serum comprising RPMI 1640 medium, to which chrysin (0, 1, 5 and 10 μM) and apigenin (purchased from Aldrich Chem. Co., St. Louis, Mo.; 0, 1, 5 and 10 μM) had been added, for 24 hours. After incubating, the FcεRI expression level on the cell surface was measured by flow cytometry (experimental procedure: see [0047]).

STAT6 = test: Chrysin intake test: STAT6 phosphorylation in spleen lymphocytes of orally dosed mice; format: in vivo, mouse
Protocol: Spleen lymphocytes collected from mice, to which chrysin had been orally administered continuously, were stimulated with LPS or LPS+IL-4 (500 U/ml) and phosphorylated STAT6 was detected by immunoprecipitation using anti-STAT6 antibody and immunoblotting. 200 μL portions of 0.4 mg/mL chrysin and 200 μL portions of 1% DMSO in 1% EtOH were administered respectively to groups (n=8) in accordance with the following administration schedule. To male C57BL/6N mice aged 5 weeks that had been preliminarily fed (MF feed) for 1 week, the samples were administered once every 2 days for 2 weeks (7 times in total; total dose: 0.56 mg (28 mg/kg) per animal). After sacrificing, spleen lymphocytes were collected from the spleen of each mouse, adjusted to a density of 2×10^7 cells/mL and stimulated with 25 μg/mL of lipopolysaccharide (LPS) or LPS+IL-4 (500 U/mL) for 30 min. Then, the cells were lysed and phosphorylated STAT6 was detected by immunoprecipitation with the use of anti-STAT6 antibody and immunoblotting to thereby examine the response to IL-4.

KU812 cells = test: A23187-induced histamine release from human basophil cell line KU812; format: cell-based; conditions: 25 μM of chrysin, 5 μM A23187, vs control free from chrysin
Protocol: Human basophil cell line KU812 cells (5×10^6 cells/mL) were incubated in Tyrode buffer comprising 1 mM of CaCl2, to which 25 μM of chrysin had been added, and then stimulated with A23187. Histamine released from the cells and histamine cumulated in the cells were quantified to thereby determine the histamine release rate. Comparison was made with a control system free from chrysin.
Human basophil cell line KU812 cells (5×10^5 cells/mL) were incubated in Tyrode buffer (137 mM NaCl, 2.7 mM KCl, 1.8 mM CaCl2, 1.1 mM MgCl2, 1.19 mM NaHCO3, 0.4 mM NaH2PO4, pH 7.4) comprising 25 μM of chrysin and 1 mM of CaCl2 for 20 min at 37° C. After adding 5 μM of A23187 (Sigma Chemical Co.), the incubation was continued for an additional 20 min at 37° C. […] In a sample for quantifying histamine cumulated in cells, the cells were centrifuged at 300×g for 5 min, ultrasonically disrupted for about 1 min and then centrifuged at 12,000×g for 5 min and 1 mL of the supernatant was collected. To perform fluorescence measurement under alkaline conditions, a complex of histamine and o-phthaldehyde (Wako) was formed and partly extracted. […] The fluorescent intensity was measured using a fluorophotometer RF-1500 at an excitation wavelength of 360 nm and a fluorescent wavelength of 450 nm.

Q: With `O=c1cc(-c2ccccc2)oc2cc(O)cc(O)c12` [Chrysin, 5,7-dihydroxyflavone] as the molecule, how does the “FcεRI expression amount on cell surface” value ([1]; flow cytometry with CRA1 antibody, compared with DMSO alone) read?
A: lowering

Q: And the “FcεRI expression suppressive rate (%)” value ([1]; single agent 1 μM)?
A: 0%

Q: And the “FcεRI expression suppressive rate (%)” value ([1]; single agent 5 μM)?
A: 11.5%

Q: What about the “FcεRI expression suppressive rate (%)” value ([1]; single agent 10 μM) of the same molecule?
A: 19.8%

Q: What about the “phosphorylation of STAT6 by the stimulus with LPS+IL-4” value (STAT6; C57BL/6N mice, oral chrysin once every 2 days for 2 weeks, total 28 mg/kg, spleen lymphocytes, LPS+IL-4 (500 U/mL) 30 min, vs control system) of the same molecule?
A: suppressed

Q: What about the “oral dose at which chrysin is efficacious as an antiallergic agent” value (STAT6; male adults having an average body weight of 60 kg (28 mg/kg)) of the same molecule?
A: ≥ 1.68 g/day

Q: And the “histamine release induced by A23187” value (KU812 cells)?
A: significantly lowered
